These are literature values, as cited in US6924273B2, “Chondroprotective/restorative compositions and methods of use thereof” (priority 2000, dated 2005).

For one series, the system named is rats. The following applies: 5000 mg/kg orally.
For series [1] the following is noted: oral administration.
The subject of a further series is mice. The following applies: 5000 mg/kg orally.
The conditions of series [2]: oral administration. The source holds these as a separate data set.

On to `N[C@H]1C(O)O[C@H](CO)[C@@H](O)[C@@H]1O.O=S(=O)(O)O` (some centres unmarked) [Glucosamine sulfate], for which the “mortality (no LD50 established)” value with rats and with mice was “no mortality” each time. The absorbed result in series [1] is “greater than 90%”.

As to Chondroitin sulfate [CS], the bioavailability entry in series [2] is “around 15%”.

Regarding `N[C@H]1C(O)O[C@H](CO)[C@@H](O)[C@@H]1O` (some centres unmarked) [Glucosamine], the solubility in water result is on record as “very soluble in water”.
